The target of one series is T1, OCT2 (Homo sapiens, UniProt O15244).
T1 construct: expressed in transfected cells; host or cells: HEK293
T1 sequence (O15244 1-555): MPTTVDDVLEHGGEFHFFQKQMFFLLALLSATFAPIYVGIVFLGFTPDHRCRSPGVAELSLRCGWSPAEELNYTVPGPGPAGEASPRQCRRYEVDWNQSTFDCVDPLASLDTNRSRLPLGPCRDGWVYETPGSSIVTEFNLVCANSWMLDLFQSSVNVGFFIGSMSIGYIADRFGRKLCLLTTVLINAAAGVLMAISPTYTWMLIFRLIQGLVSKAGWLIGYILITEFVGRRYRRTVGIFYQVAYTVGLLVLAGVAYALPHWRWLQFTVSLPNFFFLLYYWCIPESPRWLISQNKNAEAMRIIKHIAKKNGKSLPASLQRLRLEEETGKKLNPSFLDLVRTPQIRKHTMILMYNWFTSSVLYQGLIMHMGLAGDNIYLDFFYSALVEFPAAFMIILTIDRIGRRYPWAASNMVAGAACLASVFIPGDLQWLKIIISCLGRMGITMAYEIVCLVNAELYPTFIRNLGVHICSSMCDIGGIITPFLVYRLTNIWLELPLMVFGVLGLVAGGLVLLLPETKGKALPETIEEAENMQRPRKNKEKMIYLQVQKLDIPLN
Nature of the series: Uptake of amanitins into HEK293-OCT2 cells. The class given is in vitro ADME. Particulars: 50 μM amanitin, 5 min, 37 °C, HBSS, 20 min preincubation, with and without cimetidine, LC-HRMS, n = 3. The protocol: HEK293 cells overexpressing OCT2, MATE2-K, OAT1, OAT3, OATP1B1, and OATP1B3 transporters and HEK293-control cells were maintained in a humidified atmosphere of 5% CO2 at 37 °C in DMEM supplemented with 10% FBS and 5 mM non-essential amino acids. In the case of HEK293-OATP1B1, -OATP1B3, and MATE2-K cells, 2 mM sodium butyrate was added to the culture medium to enhance transport activity. Cells were seeded at 2 × 10^5 cells/well in poly-D-lysine-coated 24-well plates. After 24 h, the growth medium was discarded, and attached cells were washed with HBSS and preincubated for 20 min in HBSS at 37 °C. Stock solutions of α- and β-amanitin and representative inhibitors of transporters were diluted in HBSS to make the final concentration: cimetidine 1 mM (for OCT2), cimetidine 100 μM (for MATE2-K), probenecid 100 μM (for OAT1 and OAT3), and rifampin 100 μM (for OATP1B1 and OATP1B3). Uptake of 50 μM α- and β-amanitin was measured in the absence and presence of representative inhibitors for 5 min at 37 °C. Plates were placed immediately on ice, and cells were then washed twice with 1 mL of ice-cold HBSS. Residual HBSS was removed thoroughly from the plates. Subsequently, 150 μL of 80% methanol containing IS was added to each sample well, and the cell plates were shaken gently for 20 min at 4 °C. The remaining steps were the same as described for plasma sample preparation.

Series [1] can be described thus: Toxicokinetics after intravenous injection in mice. It is filed as in vivo. The following applies: male ICR mice; for MRT / Vd / clearance / half-life / AUC(0-inf) / AUC(0-t) / C0: mouse, mean ± SD; for MRT: AUMC/AUC; for Vd: CLxMRT, read-out: Vss; for clearance: Dose/AUC; for half-life: plasma elimination half-life; for AUC(0-inf) / AUC(0-t) / C0: LC-HRMS, non-compartmental. The protocol:
The Institutional Animal Care and Use Committee of the Catholic University of Korea (approval number, CUK-IACUC-2021-004; approval date, 21 March 2021) approved the study protocol. Male ICR mice (8 weeks of age, 27.4 ± 2.3 g) were purchased from Orient Bio Inc. (Seongnam, Korea). Mice were kept in plastic cages with unlimited access to a standard mouse diet (Orient Bio) and water before the experiments. For oral administration, mice were fasted for at least 12 h but allowed free access to water.
β-amanitin was dissolved in water and administered by iv bolus injection into the tail vein of mice at doses of 0.2 (n = 8), 0.4 (n = 6), and 0.8 (n = 7) mg/kg. Blood samples (approximately 15 μL) were collected from the retro-orbital plexus under light anesthesia with isoflurane at 0.033, 0.083, 0.25, 0.5, 0.75, 1, 1.5, 2, 3, 4, 6, and 8 h after drug administration.
Concentrations of β-amanitin in biological samples were evaluated following our previous methodology. The standard calibration curves for β-amanitin in mouse plasma ranged from 0.5 to 500 ng/mL and were linear, with a correlation coefficient of 0.9952. The inter- and intra-day accuracy and precision fell within the acceptance criteria (3.1–14.6% of coefficients of variation (CVs) and 92.5–115.0% of accuracy). The extraction recovery and matrix effect of this analytical method were 82.8–88.9% and 93.0–98.6%.
An aliquot (5 μL) of plasma sample was mixed with 15 μL of 4′-hydroxydiclofenac (internal standard (IS), 5 ng/mL) in methanol and vortexed for 2 min. The mixture was centrifuged at 13,000× g at 4 °C for 5 min, and the supernatant was then transferred to an autosampler vial. An aliquot (5 μL) was injected into the LC-HRMS system for analysis.
The toxicokinetic parameters of β-amanitin were analyzed by non-compartmental analyses (WinNonlin, Pharsight; Mountain View, CA, USA) (Table 1). Data were expressed as mean ± standard deviations (SD). Comparisons of data between groups were performed using one-way ANOVA or Student t-test. Values of p < 0.05 were considered statistically significant.

[2] abbreviates: plasma, iv bolus 0.2 mg/kg, n = 8.
Setting [3] is: plasma, iv bolus 0.4 mg/kg, n = 6.
Setting [4] is: plasma, iv bolus 0.8 mg/kg, n = 7.
The mark [5] stands for this setting: iv bolus 0.2 mg/kg, plasma, n = 8.
The mark [6] stands for this setting: iv bolus 0.4 mg/kg, plasma, n = 6.
[7] abbreviates: iv bolus 0.8 mg/kg, plasma, n = 7.

Where “and” joins values, the source holds several entries; their conditions need not be identical. Identical values can stand only once. Like-named read-outs stand apart in the source and are kept apart here.

Regarding α-amanitin [reference compound], the “Uptake into HEK293-OCT2 cells compared with HEK293 control cells (transport substrate)” value on OCT2 is “not involved in the active transport”.
As for `CC[C@H](C)[C@@H]1NC(=O)CNC(=O)[C@@H]2Cc3c([nH]c4cc(O)ccc34)[S@+]([O-])C[C@H](NC(=O)CNC1=O)C(=O)N[C@@H](CC(=O)O)C(=O)N1C[C@H](O)C[C@H]1C(=O)N[C@@H]([C@@H](C)[C@@H](O)CO)C(=O)N2` [β-amanitin], the “t1/2, range over the iv doses” value in series [1] (iv 0.2, 0.4 and 0.8 mg/kg, plasma, range of the dose-group means) was 18.3–33.6 min and 18.3~33.6 min. Also, the MRT in series [1] (setting [2]) was 22.8 min; in series [1] (setting [3]) it was 22.4 min; in series [1] (setting [4]) it was 20.7 min. Also, the Vd in series [1] (setting [2]) came to 0.359 ± 0.0855 L/kg; in series [1] (setting [3]), 0.366 ± 0.061 L/kg; in series [1] (setting [4]), 0.39 ± 0.0771 L/kg. The results for the clearance in series [1] (setting [2]), in series [1] (setting [3]) and in series [1] (setting [4]) were 15.3 ± 2.5 mL/min/kg, 16.2 ± 2.4 mL/min/kg and 18.8 ± 6 mL/min/kg, respectively. Moreover, the half-life in series [1] (iv bolus 0.2 mg/kg, n = 8) came out at 21.8 ± 8.3 min; in series [1] (iv bolus 0.4 mg/kg, n = 6), 18.3 ± 3.1 min; in series [1] (iv bolus 0.8 mg/kg, n = 7), 33.6 ± 22.4 min. The results for the AUC(0-inf) in series [1] (setting [5]), in series [1] (setting [6]) and in series [1] (setting [7]) were 223 ng·h/mL, 421 ng·h/mL and 771 ng·h/mL, respectively. The AUC(0-t) was 222 ng·h/mL in series [1] (setting [5]), 420 ng·h/mL in series [1] (setting [6]) and 769 ng·h/mL in series [1] (setting [7]). The C0 in series [1] (iv bolus (tail vein) 0.2 mg/kg in water, plasma, n = 8) amounted to 712 ± 182 ng/mL; in series [1] (iv bolus (tail vein) 0.4 mg/kg in water, plasma, n = 6) it was 1440 ± 324 ng/mL; in series [1] (iv bolus (tail vein) 0.8 mg/kg in water, plasma, n = 7), 3250 ± 904 ng/mL. Besides, the “Uptake into HEK293-OCT2 cells compared with HEK293 control cells (transport substrate)” value at OCT2 is reported as “not involved in the active transport”.

Values taken from PMC9030691, “Toxicokinetics of β-Amanitin in Mice and In Vitro Drug–Drug Interaction Potential” (Pharmaceutics, 2022).
